Source: US20230405144A1, “INDUCIBLE CELL DEATH SYSTEMS” (priority 2020, published 2023)

B1: Smac/Diablo: cell-death inducing toxin expressed from constructs SB05405 / SB05408 (protein)
chain: MAALKSWLSRSVTSFFRYRQCLCVPVVANFKKRCFSELIRPWHKTVTIGFGVTLCAVPIAQKSEPHSLSSEALMRRAVSLVTDSTSTFLSQTTYALIEAITEYTKAVYTLTSLYRQYTSLLGKMNSEEEDEVWQVIIGARAEMTSKHQEYLKLETTWMTAVGLSEMAAEAAYQTGADQASITARNHIQLVKLQVEEVHQLSRKAETKLAEAQIEELRQKTQEEGEERAESEQEAYLRED
modifications: Description of Unknown: Smac/DIABLO sequence
notes: cell-death inducing toxin expressed from constructs SB05405 / SB05408

Assays:
Type in all cases: cell-based
[1] = test system: HEK293T cells; test: Screening pro-apoptotic toxins: Incucyte confluency over 11 days
Experimental: Cell engineering and assessment: 5,000 HEK293T cells were plated in a 96-well flat bottom TC treated plate. Cells were transduced same day with 5,000 pg of specified constructs (based on p24 titer). Plates were transferred to the Incucyte where images of the cell layer were captured at 4 images per well every 2 hours over the course of 11 days with 10× objective. Confluency was calculated using the Incucyte basic pipeline software to map phase overlay. Cells were split down to 5,000 cells per well on day 4.
Cells were then lentivirally transduced to express the indicated cell-death inducing toxin.

[2] = test system: HEK293T cell line TL06776 (SB04397); test: ACP repression of toxins: Incucyte confluency over 7 days; details: BAX expressed in HEK293T cells that do not express the ACP
Experimental: Cell engineering and assessment: 5,000 HEK293T cells were plated in a 96-well flat bottom TC treated plate. Cells were transduced same day with 5,000 pg of specified constructs (based on p24 titer). Plate transferred to the Incucyte where images of the cell layer were captured at 4 images per well every 2 hours over the course of 7 days with 10× objective. Confluency was calculated using the Incucyte basic pipeline software to map phase overlay in each well.
Stable cell lines were generated to express an ACP including a transcriptional repressor. Cells were then lentivirally transduced to express the cell-death inducing toxin BAX or iCasp-9 under control of an ACP responsive promoter. The ACP transcriptional repressor includes a degron that in response to addition of an IMiD promotes ubiquitin pathway-mediated degradation of the peptides. Upon IMiD addition, degradation of the repressor leads to expression of the cell-death inducing peptide (see System 3; degron-tagged transcriptional repressor), as described in Example 1. […]
The cell line TL06776 was assessed following expression of degron domain-ZF-minKrab (SB04397) and percent confluency was quantified from pictures taken every 2 hours over course of 7 days in triplicate. […] Viability was further assessed as the ratio of confluency of a given sample relative to the confluency of non-transduced samples.

[3] = test system: HEK293T cells; test: Mifepristone-induced dimerization of iCasp9: annexin V / Sytox Red staining by flow cytometry; details: cells transduced with SB03080, 10 uM Mifepristone, 24 hours
Experimental: Cell engineering and assessment: 24 hours before transduction 50,000 HEK293T cells were plated on a 24-well dish. Next day, cells were transduced with 50,000 pg of SB03080 (Progesterone receptor domain-Gly-Ser linker-iCasp9-IRES-red fluorescent protein) (based on p24 titer). Transduced cells were split into drug free media or media with 10 uM of Mifepristone 48 hours after transduction. 24 hours later, samples were stained for annexin V, a marker of apoptosis, and Sytox Red a live/dead stain and quantified by flow cytometry.
Cells were lentivirally transduced to express the toxin Caspase-9 with an IRES-red fluorescent protein (mKate) expressed under control of an SFFV promoter. The Caspase-9 protein includes a progesterone receptor domain. Upon Mifepristone addition, monomers of pro-apoptotic Caspase-9 oligomerize through binding of the progesterone receptor domain to Mifepristone (see FIG. 3A and System 1; chemical inducer of dimerization that activates the pro-cell death-inducing protein), as described in Example 1.

| Molecule | decline in viability of a heterogeneous population [1] | decline in viability [2] [%] | cell death (both apoptotic and by live/dead) [3] |
| --- | --- | --- | --- |
| Bax: cell-death inducing toxin expressed from constructs SB05403 / SB05406 | ≤ 70% | 70 | – |
| CC#C[C@]1(O)CC[C@H]2[C@@H]3CCC4=CC(=O)CCC4=C3[C@@H](c3ccc(N(C)C)cc3)C[C@@]21C [Mifepristone] | – | – | increased cell death |
| B1 | did not | – | – |
